pIC50: −log10 of the molar value.
Tests used:
[1] = molecular target: human farnesyltransferase (FTase) (Homo sapiens, UniProt P49354+P49356); experiment: FTase inhibitory assay (fluorescence, Dansyl-GCVLS); format: biochemical; conditions: for % FTI: inhibition of human FTase at 100 μM of tested compound, mean of two experiments
Method in brief: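 Partially purified recombinant FTase with Dansyl-GCVLS and farnesyl pyrophosphate in Tris/HCl pH 7.5 (DTT, MgCl2, ZnCl2, octyl-glucoside); fluorescence (ex 340/em 486 nm) read 15 min at 30 °C. IC50 by regression for compounds inhibiting >60% at 100 µM; kinetics varied FPP (Dns-GCVLS 2.5 μM) or peptide (FPP 10 μM).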

CCRF-CEM (Leukemia) = experiment: NCI one dose, CCRF-CEM; format: cell-based, human; conditions: 1.00E-5 Molar one dose
Method in brief: (§1)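 Cells of the National Cancer Institute 60-line human cancer screen are treated with test compound for 48 h, then growth is quantified by SRB assay.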

[2] = system: EKVX (Non-Small Cell Lung Cancer); experiment: NCI one dose, EKVX; format: cell-based, human; conditions: 1.00E-5 Molar one dose
Method in brief: as §1

[3] = system: HOP-62 (Non-Small Cell Lung Cancer); experiment: NCI one dose, HOP-62; format: cell-based, human; conditions: HOP-62, 1.00E-5 Molar one dose
Method in brief: as §1

[4] = system: HOP-92 (Non-Small Cell Lung Cancer); experiment: NCI one dose, HOP-92; format: cell-based, human; conditions: HOP-92, 1.00E-5 Molar one dose
Method in brief: as §1

[5] = system: NCI-H322M (Non-Small Cell Lung Cancer); experiment: NCI one dose, NCI-H322M; format: cell-based, human; conditions: 1.00E-5 Molar one dose
Method in brief: as §1

[6] = system: NCI-H522 non-small cell lung cancer cells; experiment: NCI cell proliferation, NCI-H522; format: cell-based, human; conditions: for inhibition at 10 µM: read-out: % Cancer cell growth Inhibition (NCI-H522); for Growth Percent: NCI-H522, 1.00E-5 Molar one dose
Method in brief: (§2)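 NCI-run assay on its 60 human cancer cell lines, cytotoxicity determined via sulforhodamine B after 48 h of exposure.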

COLO 205 (Colon Cancer) = experiment: NCI one dose, COLO 205; format: cell-based, human; conditions: COLO 205, 1.00E-5 Molar one dose
Procedure: 3.4. Cell Proliferation Assay
Selected compounds were tested on a panel of 60 human cancer cell lines at the National Cancer Institute (NCI), Germantown, MD, USA. The cytotoxicity studies were conducted using a 48 h exposure protocol using the sulfo-rhodamine B assay.

HCT-116 (Colon Cancer) = experiment: NCI one dose, HCT-116; format: cell-based, human; conditions: HCT-116, 1.00E-5 Molar one dose
Method in brief: as §1

HCT-15 (Colon Cancer) = experiment: NCI one dose, HCT-15; format: cell-based, human; conditions: HCT-15, 1.00E-5 Molar one dose
Method in brief: as §1

HT29 (Colon Cancer) = experiment: NCI one dose, HT29; format: cell-based, human; conditions: HT29, 1.00E-5 Molar one dose
Method in brief: as §1

SF-295 (CNS Cancer) = experiment: NCI one dose, SF-295; format: cell-based, human; conditions: SF-295, 1.00E-5 Molar one dose
Method in brief: as §2

SNB-19 (CNS Cancer) = experiment: NCI one dose, SNB-19; format: cell-based, human; conditions: SNB-19, 1.00E-5 Molar one dose
Method in brief: as §1

SNB-75 (CNS Cancer) = experiment: NCI one dose, SNB-75; format: cell-based, human; conditions: SNB-75, 1.00E-5 Molar one dose
Method in brief: as §1

LOX IMVI (Melanoma) = experiment: NCI one dose, LOX IMVI; format: cell-based, human; conditions: 1.00E-5 Molar one dose
Method in brief: as §1

SK-MEL-2 (Melanoma) = experiment: NCI one dose, SK-MEL-2; format: cell-based, human; conditions: SK-MEL-2, 1.00E-5 Molar one dose
Method in brief: as §1

SK-MEL-28 (Melanoma) = experiment: NCI one dose, SK-MEL-28; format: cell-based, human; conditions: SK-MEL-28, 1.00E-5 Molar one dose
Method in brief: as §1

UACC-257 melanoma cells = experiment: NCI one dose, UACC-257; format: cell-based, human; conditions: for Growth Percent: UACC-257, 1.00E-5 Molar one dose
Method in brief: as §1

UACC-62 (Melanoma) = experiment: NCI one dose, UACC-62; format: cell-based, human; conditions: UACC-62, 1.00E-5 Molar one dose
Method in brief: as §1

OVCAR-3 (Ovarian Cancer) = experiment: NCI one dose, OVCAR-3; format: cell-based, human; conditions: OVCAR-3, 1.00E-5 Molar one dose
Method in brief: as §1

OVCAR-5 (Ovarian Cancer) = experiment: NCI one dose, OVCAR-5; format: cell-based, human; conditions: OVCAR-5, 1.00E-5 Molar one dose
Method in brief: as §1

SK-OV-3 (Ovarian Cancer) = experiment: NCI one dose, SK-OV-3; format: cell-based, human; conditions: SK-OV-3, 1.00E-5 Molar one dose
Method in brief: as §1

ACHN (Renal Cancer) = experiment: NCI one dose, ACHN; format: cell-based, human; conditions: 1.00E-5 Molar one dose
Method in brief: as §2

MCF7 (Breast Cancer) = experiment: NCI one dose, MCF7; format: cell-based, human; conditions: MCF7, 1.00E-5 Molar one dose
Method in brief: as §1

HS 578T (Breast Cancer) = experiment: NCI one dose, HS 578T; format: cell-based, human; conditions: 1.00E-5 Molar one dose
Method in brief: as §1

BT-549 (Breast Cancer) = experiment: NCI one dose, BT-549; format: cell-based, human; conditions: BT-549, 1.00E-5 Molar one dose
Method in brief: as §1

[7] = system: MDA-MB-468 breast cancer cells; experiment: NCI one dose, MDA-MB-468; format: cell-based, human; conditions: for Growth Percent: MDA-MB-468, 1.00E-5 Molar one dose
Method in brief: as §1

| Structure (SMILES) | % FTI [1] | Growth Percent (CCRF-CEM (Leukemia)) | Growth Percent [2] | Growth Percent [3] | Growth Percent [4] | Growth Percent [5] | inhibition at 10 µM ([6]; Homo sapiens, NCI-H522) | Growth Percent [6] | Growth Percent (COLO 205 (Colon Cancer)) | Growth Percent (HCT-116 (Colon Cancer)) | Growth Percent (HCT-15 (Colon Cancer)) | Growth Percent (HT29 (Colon Cancer)) | Growth Percent (SF-295 (CNS Cancer)) | Growth Percent (SNB-19 (CNS Cancer)) | Growth Percent (SNB-75 (CNS Cancer)) | Growth Percent (LOX IMVI (Melanoma)) | Growth Percent (SK-MEL-2 (Melanoma)) | Growth Percent (SK-MEL-28 (Melanoma)) | Growth Percent (UACC-257 melanoma cells) | Growth Percent (UACC-62 (Melanoma)) | further results |
| --- | --- | --- | --- | --- | --- | --- | --- | --- | --- | --- | --- | --- | --- | --- | --- | --- | --- | --- | --- | --- | --- |
| COc1ccccc1CNC(=O)[C@@H]1CS[C@@]2(C)c3ccccc3C(=O)N12 [4bG] | 30% | 98.16% | 102.57% | 98.30% | 98.11% | 100.27% | 30% | 70.03% | 105.75% | 99.72% | 98.16% | 79.32% | 99.22% | 102.87% | 96.63% | 98.70% | 98.59% | 109.27% | 74.15% | 95.39% | Growth Percent (OVCAR-3 (Ovarian Cancer)): 110.44%; Growth Percent (OVCAR-5 (Ovarian Cancer)): 107.74%; Growth Percent (SK-OV-3 (Ovarian Cancer)): 99.44%; Growth Percent (ACHN (Renal Cancer)): 109.61%; Growth Percent (MCF7 (Breast Cancer)): 92.90%; Growth Percent (HS 578T (Breast Cancer)): 95.65%; Growth Percent (BT-549 (Breast Cancer)): 109.63%; Growth Percent [7]: 93.22% |
| C[C@@]12SC[C@@H](C(=O)NCc3ccc(Cl)cc3Cl)N1C(=O)c1ccccc12 [4bH] | 22% | 84.65% | 112.50% | 103.25% | 106.23% | 92.74% | 28% | 71.73% | 109.32% | 96.09% | 105.31% | 83.74% | 98.60% | 100.91% | 99.75% | 101.94% | 92.79% | 108.92% | 79.49% | 81.85% | Growth Percent (OVCAR-3 (Ovarian Cancer)): 101.07%; Growth Percent (OVCAR-5 (Ovarian Cancer)): 99.53%; Growth Percent (SK-OV-3 (Ovarian Cancer)): 99.25%; Growth Percent (ACHN (Renal Cancer)): 106.47%; Growth Percent (MCF7 (Breast Cancer)): 89.35%; Growth Percent (HS 578T (Breast Cancer)): 91.90%; Growth Percent (BT-549 (Breast Cancer)): 107.71%; Growth Percent [7]: 88.80% |
| COc1ccc(CNC(=O)[C@@H]2CS[C@@]3(C)c4ccccc4C(=O)N23)cc1OC [4bI] | 78% | 81.76% | 107.62% | 97.01% | 93.76% | 96.18% | 45% | 54.70% | 107.68% | 95.39% | 112.46% | 77.04% | 102.29% | 96.85% | 110.74% | 100.38% | 79.40% | 104.89% | 73.35% | 79.36% | pIC50 ([1]; human FTase in vitro): 7.60; GI50 ([6]; Homo sapiens, NCI-H522): 12.9 µM; inhibition at 10 µM (UACC-257 melanoma cells; Homo sapiens, UACC-257, 10 µM single dose, read-out: inhibition of growth of UACC-257 melanoma cells): 27%; Growth Percent (OVCAR-3 (Ovarian Cancer)): 110.84%; Growth Percent (OVCAR-5 (Ovarian Cancer)): 111.28%; Growth Percent (SK-OV-3 (Ovarian Cancer)): 103.22%; Growth Percent (ACHN (Renal Cancer)): 96.90%; Growth Percent (MCF7 (Breast Cancer)): 87.17%; Growth Percent (HS 578T (Breast Cancer)): 94.35%; Growth Percent (BT-549 (Breast Cancer)): 110.79%; inhibition at 10 µM ([7]; Homo sapiens, MDA-MB-468, 10 µM single dose, read-out: inhibition of growth of MDA-MB-468 breast cancer cells): 30%; Growth Percent [7]: 70.36% |
| COc1cc(CNC(=O)[C@@H]2CS[C@@]3(C)c4ccccc4C(=O)N23)cc(OC)c1OC [4bJ] | 74% | 90.73% | 108.30% | 90.09% | 88.36% | 99.71% | 31% | 68.76% | 105.48% | 98.10% | 105.84% | 82.56% | 103.92% | 93.01% | 97.50% | 105.04% | 89.27% | 103.28% | 73.76% | 92.46% | pIC50 ([1]; human FTase): 5.36; pIC50 ([1]; human FTase in vitro): 5.36; Growth Percent (OVCAR-3 (Ovarian Cancer)): 112.40%; Growth Percent (OVCAR-5 (Ovarian Cancer)): 102.06%; Growth Percent (SK-OV-3 (Ovarian Cancer)): 103.62%; Growth Percent (ACHN (Renal Cancer)): 97.41%; Growth Percent (MCF7 (Breast Cancer)): 93.75%; Growth Percent (HS 578T (Breast Cancer)): 94.07%; Growth Percent (BT-549 (Breast Cancer)): 107.75%; Growth Percent [7]: 89.65% |

From PMC11855478, “Bicyclic N,S-Acetals Containing Fused Cysteine-Amide System as New Heterocyclic Class Targeting Human Farnesyltransferase (FTase-h)” (International Journal of Molecular Sciences, 2025)
